Where a name gives a salt, the structure may show the parent alone.
Assays:
male C57BL/6N mouse = test: Effect on glucose tolerance of normal mouse (oral glucose loading); format: in vivo; conditions: 2 h, 30 min before glucose 2 g/kg, AUC0-120, 0.5% MC = 100%, NVP DPP728 10 mg/kg = 0%, lower = better, read-out: Improvement degree of glucose tolerance; for response vs control in vivo at 3 mg/kg: 3 mg/kg oral
Protocol: Effect on Glucose Tolerance of Normal Mouse
male C57BL/6N mouse (purchased from CHARLES RIVER JAPAN, INC.)
A suspension of the test compound and NVP DPP728 or 0.5% MC solution (solvent control group) were orally administered at a dose of 10 mL/kg, and after 30 minutes, glucose solution was orally administered at a dose of 10 mL/kg. Glucose was orally administered at a dose of 2 g/kg.
Immediately before the administration of the test substance and NVP DPP728, immediately before the administration of the glucose solution and at 30 minutes, 60 minutes, and 120 minutes after the administration, a tail vein of the mouse was injured to slightly bleed by a razor under no anesthesia. 10 μl of blood was collected and was immediately mixed with 0.6M perchloric acid (140 μl). Glucose in the supernatant obtained by centrifugation (1500 g, 10 minutes, 4° C., refrigerated centrifuge GS-6KR, Beckman Instruments, Inc.) was measured using Glucose CII-Test Wako (Wako Pure Chemical Industries, Ltd.).
Area under the curve of blood glucose level-time (AUC0-120; Area Under the Curve) from the time of administration of glucose to 120 minutes after administration was calculated for respective administration groups, i.e., 0.5% MC solution, NVP DPP728, and the test compounds. Taking the AUC0-120 of the 0.5% MC solution administration group as 100% and the AUC0-120 of NVP DPP728 (10 mg/kg) administration group as 0%, the improvement degree of the glucose tolerance of a test compound was calculated using the following formula: Improvement degree of the glucose tolerance (%)=(AUC0-120 of the test compound−AUC0-120 of the NVP DPP728 (10 mg/kg) administration group)/(AUC0-120 of the 0.5% MC solution administration group−AUC0-120 of the NVP DPP728 (10 mg/kg) administration group)×100. • The lower the % value, the greater the improvement degree of the glucose tolerance will be.

[1] = target: T1, DPP-IV obtained from swine kidney (Sus scrofa, UniProt P22411); test: Determination of the inhibition action of DPPIV; format: biochemical; conditions: Gly-Pro-p-nitroanilide 0.33 mM, absorbance 405 nm
T1 construct: DPP-IV obtained from swine kidney; from tissue; host or cells: swine kidney
T1 sequence (P22411 whole entry): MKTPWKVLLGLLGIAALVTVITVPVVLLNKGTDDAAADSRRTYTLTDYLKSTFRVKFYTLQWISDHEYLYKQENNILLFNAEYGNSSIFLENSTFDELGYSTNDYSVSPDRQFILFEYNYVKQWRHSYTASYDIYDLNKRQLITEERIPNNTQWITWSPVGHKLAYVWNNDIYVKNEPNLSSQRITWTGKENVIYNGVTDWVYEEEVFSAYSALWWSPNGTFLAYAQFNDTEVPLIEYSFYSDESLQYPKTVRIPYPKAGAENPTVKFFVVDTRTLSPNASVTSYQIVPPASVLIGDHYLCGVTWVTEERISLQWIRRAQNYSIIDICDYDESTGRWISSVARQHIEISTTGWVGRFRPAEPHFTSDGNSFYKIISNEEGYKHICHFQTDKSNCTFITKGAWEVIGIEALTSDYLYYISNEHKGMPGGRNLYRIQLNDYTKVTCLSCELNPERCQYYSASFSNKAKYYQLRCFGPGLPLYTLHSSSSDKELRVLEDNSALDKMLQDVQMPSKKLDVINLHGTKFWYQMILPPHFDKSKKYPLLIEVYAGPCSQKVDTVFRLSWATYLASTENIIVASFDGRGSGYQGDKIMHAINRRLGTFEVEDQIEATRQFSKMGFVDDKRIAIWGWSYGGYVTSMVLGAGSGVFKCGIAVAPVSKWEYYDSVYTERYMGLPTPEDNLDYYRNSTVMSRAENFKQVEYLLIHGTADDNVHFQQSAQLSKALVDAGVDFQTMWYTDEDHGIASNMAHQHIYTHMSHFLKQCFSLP
Protocol: DPP-IV obtained from swine kidney was dissolved in reaction buffer (50 mM Tris-HCl pH 7.4, 0.1% BSA) at a concentration of 10 mU/mL, and 110 μl of the solution was added. Then, medicament (15 μl) was added thereto, and the mixture was incubated at room temperature for 20 minutes. Gly-Pro-p-nitroanilide (25 μl, final concentration: 0.33 mM) dissolved to 2 mM was added to the mixture to start enzymatic reaction. The reaction time was 20 minutes, and 1N phosphoric acid solution (25 μl) was added to the mixture to quench the reaction.

SMILES: Cn1c(=O)n(CCc2ccccc2)c(=O)c2c1nc(N1CCCNCC1)n2Cc1ccccc1 [Control compound 1, reference compound]
- response vs control in vivo at 3 mg/kg (male C57BL/6N mouse): 49.2%
- IC50 [1]: 24.1 nM

SMILES: CC#CCn1c(N2CCNCC2)nc2c1c(=O)n(C)c(=O)n2C(C)C [Example 270, 7-(2-Butynyl)-3-isopropyl-1-methyl-8-(piperazin-1-yl)-3,7-dihydropurine-2,6-dione trifluoroacetate]
- response vs control in vivo at 3 mg/kg (male C57BL/6N mouse): 7.3%

SMILES: CC#CCn1c(N2CCNCC2)nc2c1c(=O)n(C)c(=O)n2CC(=O)C(C)(C)C [Example 274, 7-(2-Butynyl)-3-(3,3-dimethyl-2-oxobutyl)-1-methyl-8-(piperazin-1-yl)-3,7-dihydropurine-2,6-dione trifluoroacetate]
- response vs control in vivo at 3 mg/kg (male C57BL/6N mouse): 1.9%

SMILES: CC#CCn1c(N2CCNCC2)nc2c1c(=O)n(C)c(=O)n2C1CCNC1=O (stereo not drawn) [Example 284, 7-(2-Butynyl)-1-methyl-3-(2-oxopyrrolidin-3-yl)-8-(piperazin-1-yl)-3,7-dihydropurine-2,6-dione hydrochloride]
- response vs control in vivo at 3 mg/kg (male C57BL/6N mouse): 11.3%

SMILES: CC#CCn1c(N2CCNCC2)nc2c1c(=O)[nH]c(=O)n2CCOCC [Example 321, 7-(2-Butynyl)-3-(2-ethoxyethyl)-8-(piperazin-1-yl)-3,7-dihydropurine-2,6-dione trifluoroacetate]
- response vs control in vivo at 3 mg/kg (male C57BL/6N mouse): 16.9%

SMILES: CC#CCn1c(N2CCNCC2)nc2c1c(=O)n(CC(=O)c1ccccc1)c(=O)n2CCOCC [Example 323, 7-(2-Butynyl)-3-(2-ethoxyethyl)-1-(2-oxo-2-phenylethyl-8-(piperazin-1-yl)-3,7-dihydropurine-2,6-dione trifluoroacetate]
- response vs control in vivo at 3 mg/kg (male C57BL/6N mouse): 0.5%

SMILES: CC#CCn1c(N2CCNCC2)nc2c1c(=O)n(CCc1ccccc1)c(=O)n2CC(=O)OCC [Example 326, [7-(2-Butynyl)-2,6-dioxo-1-(2-phenethyl)-8-(piperazin-1-yl)-1,2,6,7-tetrahydropurin-3-yl]acetic acid ethyl ester hydrochloride]
- response vs control in vivo at 1 mg/kg (male C57BL/6N mouse; 1 mg/kg oral): -19.2%
- response vs control in vivo at 3 mg/kg (male C57BL/6N mouse): -30.6%

From patent US7074798B2, “Xanthine derivative and DPPIV inhibitor” (Eisai Co., Ltd, priority 2002, dated 2006)
